Test results as given in patent US20250304576A1 (Cancer Research Technology Limited, priority 2022, published 2025).
pKi: −log10 of the molar value.

Tested on: PC3M xenografts
Assay: In vivo assessment in nude mice bearing PC3M xenografts
Details: once daily i.p. dose of 50 mg/kg, over 21 days
Procedure: Xenografts were established in nude mice by subcutaneous injection of 5×10^6 PC3M-Luc-C6 cells. After 8 days, mice bearing tumours of approximately 60 mm^3 in volume were randomised into 3 treatment groups of 8 mice in each. One group of mice received intraperitoneal injection (i.p.) of 50 mg/kg SU1433 once daily dissolved in a vehicle of 5% (v/v) DMSO, 5% (v/v) solutol HS15 and 15% (w/v) hydroxypropyl-p-cyclodextrin in water for injection (90%) for a total of 21 days. Another group received once daily i.p. injection of the vehicle (100 μL) alone whilst the last group received no treatment. To monitor potential toxicity, body weight was measured daily, and experimental animals were evaluated for signs of distress using standard guidelines. Mice whose xenografts reached 1,900 mm^3 were euthanised. Subcutaneous tumours were measured with calipers immediately before treatment and every 2 or 3 days thereafter. On the assumption of ellipsoidal geometry, diameter measurements were converted to an approximate volume by multiplying half the longest diameter by the square of the mean of the 2 shorter diameters. For every animal, relative tumour volume (volume at any time point divided by volume immediately before treatment) was plotted against time, and the area under the time-volume curves was determined by trapezoidal approximation. […]

**Q.** For `CC(C)(C)C#Cc1cc(-c2ccnc(N)c2)cc2c(N)n[nH]c12` [Example 137, 5-(2-Aminopyridin-4-yl)-7-(3,3-dimethylbut-1-yn-1-yl)-1H-indazol-3-amine], which “inhibition of tumour growth” value is on record?
**A.** approximately 60%

Tested on: PANC1 cells
Assay: Cell viability, alamarBlue assay, PANC1 cells
Format: cell-based
Details: treatment for 48 hours
Procedure: (§1) PC3, PC3M, LNCaP Al, cells were grown in RPMI 1640 media and PANC1 and MiaPac-2 cells were grown in Dulbecco's Modified Eagle's Media (DMEM) which was supplemented with 10% (v/v) Foetal Calf Serum (FCS) (Charcoal-stripped for LNCaP Als), L-glutamine ([…]) and penicillin/streptomycin (250 units/ml; 100 μg/ml). All cells were incubated in a humidified atmosphere at 37° C. and 5% (v/v) CO2. Cells were cultured as a monolayer in 10 ml media in […] vented flasks and grown until subculture was required.
(§2) Cell viability determination: Cells (1000 cells/100 μl) were plated into 96 well plates and incubated for 24 hours at 37° C. and 5% (v/v) CO2 before being treated with SU1433. After incubation with SU1433 for 48 h, cell viability was measured using the alamarBlue® Assay (Thermofisher, UK). The media was removed and replaced with a 1:10 media to alamar blue solution. After a 1 h incubation at 37° C. and 5% CO2, the fluorescence was measured at 530-560 nm excitation wavelength and 590 nm emission wavelength in a fluorescence plate reader. All treatment were measured in duplicate wells and repeated at least 3 times. The results represent the fractional survival of untreated controls±SD.

**Q.** How did the “viability of PANC1 cells” value turn out when `CC(C)(C)C#Cc1cc(-c2ccnc(N)c2)cc2c(N)n[nH]c12` [Example 137, 5-(2-Aminopyridin-4-yl)-7-(3,3-dimethylbut-1-yn-1-yl)-1H-indazol-3-amine] was run?
**A.** reduced the viability

Tested on: MiaPaca-2 cells
Assay: Cell viability, alamarBlue assay, MiaPaca-2 cells
Format: cell-based
Details: treatment for 48 hours
Procedure: as §1, §2

**Q.** How did the “viability of MiaPaca-2 cells” value turn out when `CC(C)(C)C#Cc1cc(-c2ccnc(N)c2)cc2c(N)n[nH]c12` [Example 137, 5-(2-Aminopyridin-4-yl)-7-(3,3-dimethylbut-1-yn-1-yl)-1H-indazol-3-amine] was run?
**A.** reduced the viability

Target: T1, Recombinant IKKβ (Homo sapiens, UniProt O14920)
T1 construct: purchased Millipore, Dundee, UK
T1 sequence (O14920 1-756): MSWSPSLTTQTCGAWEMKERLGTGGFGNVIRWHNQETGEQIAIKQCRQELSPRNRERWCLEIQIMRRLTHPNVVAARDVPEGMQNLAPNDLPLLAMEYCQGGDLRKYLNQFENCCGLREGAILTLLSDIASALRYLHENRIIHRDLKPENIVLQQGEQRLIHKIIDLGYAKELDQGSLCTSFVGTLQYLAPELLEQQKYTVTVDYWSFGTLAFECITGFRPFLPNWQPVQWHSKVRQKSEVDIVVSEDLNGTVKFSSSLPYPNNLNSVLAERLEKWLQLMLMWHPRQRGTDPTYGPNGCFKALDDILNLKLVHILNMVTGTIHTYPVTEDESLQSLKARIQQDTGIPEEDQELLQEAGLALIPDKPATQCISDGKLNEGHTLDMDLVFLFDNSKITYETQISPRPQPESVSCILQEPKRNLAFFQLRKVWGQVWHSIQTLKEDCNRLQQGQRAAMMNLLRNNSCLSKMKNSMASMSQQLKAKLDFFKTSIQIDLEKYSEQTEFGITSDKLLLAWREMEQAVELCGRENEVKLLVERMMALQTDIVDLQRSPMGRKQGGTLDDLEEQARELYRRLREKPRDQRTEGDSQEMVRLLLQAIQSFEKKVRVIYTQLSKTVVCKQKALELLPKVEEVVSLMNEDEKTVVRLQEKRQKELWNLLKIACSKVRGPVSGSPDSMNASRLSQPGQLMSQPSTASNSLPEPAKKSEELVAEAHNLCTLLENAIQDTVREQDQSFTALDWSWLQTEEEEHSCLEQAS
Assay: DELFIA IKKβ kinase assay (apparent Ki, Cheng-Prusoff)
Format: biochemical
Details: DELFIA assay (first line of an example)
Method in brief: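 DELFIA time-resolved fluorescence (ex 340/em 615 nm) quantified phosphorylation of a biotinylated IκB-α Ser32 peptide (0.375 μM) by 37 nM recombinant IKKα or IKKβ. Reactions used 40 μM ATP, Tris pH 7.5 buffer with MgCl2, DTT and BSA, 60 min at 30° C. Cheng-Prusoff equation gave apparent Ki.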

**Q.** `Nc1n[nH]c2ccc(-c3ccnc4[nH]c(CCN5CCCCC5)cc34)cc12` [Example 267, 5-(2-(2-(Piperidin-1-yl)ethyl)-1H-pyrrolo[2,3-b]pyridine-4-yl)-1H-indazol-3-amine] was tested. Which pKi did it give?
**A.** 5.86

**Q.** How did the pKi turn out when `CC(C)(C)Cc1cc2c(-c3ccc4[nH]nc(N)c4c3)ccnc2[nH]1` [Example 220, 5-(2-Neopentyl-1H-pyrrolo[2,3-b]pyridin-4-yl)-1H-indazol-3-amine] was run?
**A.** 6.08

**Q.** How did the pKi turn out when `Nc1n[nH]c2ccc(-c3ccnc4[nH]c(C5CCCCN5)cc34)cc12` (stereo not shown) [Example 250, 5-(2-(Piperidin-2-yl)-1H-pyrrolo[2,3-b]pyridine-4-yl)-1H-indazol-3-amine] was run?
**A.** < 5.00

**Q.** How did the pKi turn out when `Nc1n[nH]c2ccc(-c3ccnc4[nH]c(C(=O)NC5CCCCC5)cc34)cc12` [Example 236, 4-(3-Amino-1H-indazol-5-yl)-N-cyclohexyl-1H-pyrrolo[2,3-b]pyridine-2-carboxamide] was run?
**A.** 7.10

**Q.** `Nc1n[nH]c2ccc(-c3ccnc4[nH]c(CC5CCOCC5)cc34)cc12` [Example 230, 5-(2-((tetrahydro-2H-pyran-4-yl)methyl)-1H-pyrrolo[2,3-b]pyridin-4-yl)-1H-indazol-3-amine] was tested. Which pKi did it give?
**A.** 6.59

**Q.** How did the pKi turn out when `Nc1n[nH]c2ccc(-c3ccnc4[nH]c(C(=O)N5CCCC5)cc34)cc12` [Example 234, (4-(3-Amino-1H-indazol-5-yl)-1H-pyrrolo[2,3-b]pyridin-2-yl)(pyrrolidin-1-yl)methanone] was run?
**A.** 6.57

**Q.** With `Nc1n[nH]c2ccc(-c3ccnc4[nH]c(C5CCCCO5)cc34)cc12` (stereo not shown) [Example 229, 5-(2-(Tetrahydro-2H-pyran-2-yl)-1H-pyrrolo[2,3-b]pyridin-4-yl)-1H-indazol-3-amine] as the compound, how does the pKi read?
**A.** 6.57

**Q.** `CC(C)(O)C#Cc1cc(-c2ccnc3[nH]ccc23)cc2c(N)n[nH]c12` [Example 206, 4-(3-Amino-5-(1H-pyrrolo[2,3-b]pyridin-4-yl)-1H-indazol-7-yl)-2-methylbut-3-yn-2-ol] was tested. Which pKi did it give?
**A.** 5.82

**Q.** `Nc1n[nH]c2ccc(-c3ccnc4[nH]c(C5CCOCC5)cc34)cc12` [Example 228, 5-(2-(tetrahydro-2H-pyran-4-yl)-1H-pyrrolo[2,3-b]pyridin-4-yl)-1H-indazol-3-amine] was tested. Which pKi did it give?
**A.** 7.01

**Q.** With `Nc1n[nH]c2c(C#CC3CCCCC3)cc(-c3ccnc4[nH]ccc34)cc12` [Example 204, 7-(Cyclohexylethynyl)-5-(1H-pyrrolo[2,3-b]pyridin-4-yl)-1H-indazol-3-amine] as the compound, how does the pKi read?
**A.** 5.93

**Q.** How did the pKi turn out when `CN1CCCN(Cc2cc3c(-c4ccc5[nH]nc(N)c5c4)ccnc3[nH]2)CC1` [Example 266, 5-(2-((4-Methyl-1,4-diazepan-1-yl)methyl)-1H-pyrrolo[2,3-b]pyridin-4-yl)-1H-indazol-3-amine] was run?
**A.** 5.74

**Q.** How did the pKi turn out when `Nc1n[nH]c2ccc(-c3ccnc4[nH]c(CC5CCCCC5)cc34)cc12` [Example 221, 5-(2-(Cyclohexylmethyl)-1H-pyrrolo[2,3-b]pyridin-4-yl)-1H-indazol-3-amine] was run?
**A.** 6.34

**Q.** `CC(C)(C)NCc1cc2c(-c3ccc4[nH]nc(N)c4c3)ccnc2[nH]1` [Example 248, 5-(2-((tert-Butylamino)methyl)-1H-pyrrolo[2,3-b]pyridine-4-yl)-1H-indazol-3-amine] was tested. Which pKi did it give?
**A.** 5.40

Same assay, conditions: non-italicised figure: DELFIA assay

**Q.** How did the pKi turn out when `CC(C)(C)C#Cc1cc(-c2ccnc(N)c2)cc2c(N)n[nH]c12` [Example 137, 5-(2-Aminopyridin-4-yl)-7-(3,3-dimethylbut-1-yn-1-yl)-1H-indazol-3-amine] was run?
**A.** 5.83

**Q.** `Nc1nccc(-c2ccc3[nH]nc(N)c3c2)c1C#CCO` [Example 83, 3-(2-Amino-4-(3-amino-1H-indazol-5-yl)pyridine-3-yl)prop-2-yn-1-ol] was tested. Which pKi did it give?
**A.** 6.40

**Q.** `Nc1nccc(-c2ccc3[nH]nc(N)c3c2)c1C#CC1CCCC1` [Example 73, 5-(2-Amino-3-(cyclopentylethynyl)pyridine-4-yl)-1H-indazol-3-amine] was tested. Which pKi did it give?
**A.** 6.54

**Q.** With `CC(C)(O)C#Cc1c(-c2ccc3[nH]nc(N)c3c2)ccnc1N` [Example 87, 4-(2-Amino-4-(3-amino-1H-indazol-5-yl)pyridine-3-yl)-2-methylbut-3-yn-2-ol] as the compound, how does the pKi read?
**A.** 6.53

**Q.** How did the pKi turn out when `Nc1nccc(-c2ccc3[nH]nc(N)c3c2)c1C#CCCCO` [Example 85, 5-(2-Amino-4-(3-amino-1H-indazol-5-yl)pyridine-3-yl)pent-4-yn-1-ol] was run?
**A.** 7.02

**Q.** `Nc1nccc(-c2ccc3[nH]nc(N)c3c2)c1C#CCCC(=O)N1CCOCC1` [Example 99, 5-(2-Amino-4-(3-amino-1H-indazol-5-yl)pyridine-3-yl)-1-morpholinopent-4-yn-1-one] was tested. Which pKi did it give?
**A.** 6.27
